Laboratory results reported in US20140155429A1, “Treatment of Cognitive Disorders with Certain Alpha-7 Nicotinic Acid Receptor Agonists in Combination with Nicotine” (EnVivo Pharmaceuticals, Inc., priority 2011, published 2014).

How the values were obtained:
schizophrenia subjects = assay: Sensory electrophysiological responses (P50 gating, MMN, P300, N100) in schizophrenia subjects; assay type: in vivo, human; details: in combination with a tobacco-free nicotine dosage form, greater than compound alone, expected at a daily dose as low as 0.3 mg
Method: These effects are expected at a daily dose as low as 0.3 mg of (R)-7-chloro-N-(quinuclidin-3-yl)benzo[b]thiophene-2-carboxamide hydrochloride.
Impairment of the ability of central nervous system to inhibit irrelevant sensory information has long been used as a model for understanding the deficits of attention seen in schizophrenic subjects. Two approaches to the measurement of this ability have commonly been employed (see (Heinrichs, 2004; Potter et al., 2006; Turetsky et al., 2007; Umbricht and Krljes, 2005) for reviews and meta-analyses): (1) the sensory gating paradigm in which the presentation of one stimulus normally suppresses the response elicited by a stimulus which rapidly follows it. […] (2) the oddball or orienting paradigm in which a rare or unexpected event elicits a diminished response in schizophrenic subjects because attentional resources are inappropriately focused on less salient aspects of the environment.
Two responses are commonly used assess brain activity: (1) the auditory P50 response elicited by the second member of a pair of clicks; and (2) the mismatch negativity (MMN) or N2 response evoked by a rarely occurring pure tone of no instructed relevance to the subject. Abnormalities in both P50 gating and the MMN have been reported in schizophrenic subjects. […]

[1] = Memory improvement at a subclinical dose in combination with an acetylcholinesterase inhibitor; assay type: in vivo; details: in combination with an acetylcholinesterase inhibitor also at a subclinical dose
Method: Thus, a subject can experience a benefit (e.g., improved memory or cognition) from a combination of drugs each of which is administered at very low, side-effect reducing or side-effect avoiding dose. Moreover, the combination of drugs may provide a benefit for a wider range or subjects and/or over a longer period of treatment.

humans = assay: Procognitive effects in humans at low doses; assay type: in vivo, human; details: unexpectedly low doses
Excerpt: Thus, (R)-7-chloro-N-(quinuclidin-3-yl)benzo[b]thiophene-2-carboxamide and pharmaceutically acceptable salts thereof can be used at unexpectedly low doses improve cognition in individuals suffering from impaired cognition and in healthy individuals (i.e., individuals that are not suffering from an apparent cognitive deficit). For example, it can be used to improve cognition in subjects suffering from Alzheimer's disease, schizophrenia and other disorders such as other neurodegenerative diseases (e.g., Huntington's Disease or Parkinson's Disease) and attention deficit disorder. It can be used to treat certain disorders, e.g., Alzheimer's disease, schizophrenia (e.g., paranoid type, disorganized type, catatonic type, and undifferentiated type), schizophreniform disorder, schizoaffective disorder, delusional disorder, positive symptoms of schizophrenia, negative symptoms of schizophrenia at a daily dose of 3 mg, 2.70 mg, 2.50 mg, 2.25 mg, 2 mg, 1.75 mg, 1.50 mg, 1.25 mg, 1 mg, 0.7, 0.5, 0.3 mg or even 0.1 mg. The compound can be used to improve one or more aspects of cognition, e.g., one or more of: executive function, memory (e.g., working memory), social cognition, visual learning, verbal learning and speed of processing. […]

Row | Compound | sensory electrophysiological responses which correlate with improved cognitive and functional performance (schizophrenia subjects) | memory [1] | procognitive effects (humans)
1 | Cl.O=C(N[C@H]1CN2CCC1CC2)c1cc2cccc(Cl)c2s1 [(R)-7-chloro-N-(quinuclidin-3-yl)benzo[b]thiophene-2-carboxamide hydrochloride] | can improve sensory electrophysiological responses | – | –
2 | O=C(N[C@H]1CN2CCC1CC2)c1cc2cccc(Cl)c2s1 [(R)-7-chloro-N-(quinuclidin-3-yl)benzo[b]thiophene-2-carboxamide] | – | memory can be improved | can have procognitive effects in humans at unexpectedly low doses
